These results are taken from ChEMBL document CHEMBL1133867, “Design, synthesis, and SAR of heterocycle-containing antagonists of the human CCR5 receptor for the treatment of HIV-1 infection” (Bioorg Med Chem Lett, 2001).

Data set [1] has as its target T1, C-C chemokine receptor type 5 (Homo sapiens, UniProt P51681). As to the kind of experiment: Binding affinity against C-C chemokine receptor type 5 stably expressed in Chinese hamster ovary (CHO) cells using [125I]-MIP-1 alpha as the radioligand. In kind it is cell-based.
Data set [2] addresses T2, C-C chemokine receptor type 3 (Homo sapiens, UniProt P51677).
T2 sequence (P51677 whole entry): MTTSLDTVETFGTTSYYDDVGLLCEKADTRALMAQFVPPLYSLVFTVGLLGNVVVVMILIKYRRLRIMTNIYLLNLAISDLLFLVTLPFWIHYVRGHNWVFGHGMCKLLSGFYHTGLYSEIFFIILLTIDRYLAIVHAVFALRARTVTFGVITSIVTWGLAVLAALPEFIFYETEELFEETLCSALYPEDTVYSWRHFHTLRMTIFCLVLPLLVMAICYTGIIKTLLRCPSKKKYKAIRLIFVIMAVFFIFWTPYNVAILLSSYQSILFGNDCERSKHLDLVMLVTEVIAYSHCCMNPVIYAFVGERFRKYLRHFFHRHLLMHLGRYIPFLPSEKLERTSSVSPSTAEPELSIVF
The data set is described as follows: Compound was evaluated for its inhibitory activity against C-C chemokine receptor type 3.

The target in data set [3] is T3, C-C chemokine receptor type 1 (Homo sapiens, UniProt P32246).
T3 sequence (P32246 whole entry): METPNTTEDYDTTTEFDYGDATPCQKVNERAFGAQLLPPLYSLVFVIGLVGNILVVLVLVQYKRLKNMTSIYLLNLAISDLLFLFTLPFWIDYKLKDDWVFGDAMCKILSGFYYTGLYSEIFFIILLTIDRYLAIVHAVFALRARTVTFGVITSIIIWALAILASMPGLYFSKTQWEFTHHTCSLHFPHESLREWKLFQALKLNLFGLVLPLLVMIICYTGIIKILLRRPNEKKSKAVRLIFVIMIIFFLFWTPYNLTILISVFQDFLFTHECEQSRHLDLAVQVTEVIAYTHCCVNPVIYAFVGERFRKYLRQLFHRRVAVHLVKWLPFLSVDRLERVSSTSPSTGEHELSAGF
As to the kind of experiment: Compound was evaluated for inhibitory activity against C-C chemokine receptor type 1.

For data set [4], the target named is C-X-C chemokine receptor type 4 (Homo sapiens, UniProt P61073). The data set is described as follows: Compound was evaluated for its inhibitory activity against C-X-C chemokine receptor type 4.
C-X-C chemokine receptor type 4, sequence (P61073 whole entry): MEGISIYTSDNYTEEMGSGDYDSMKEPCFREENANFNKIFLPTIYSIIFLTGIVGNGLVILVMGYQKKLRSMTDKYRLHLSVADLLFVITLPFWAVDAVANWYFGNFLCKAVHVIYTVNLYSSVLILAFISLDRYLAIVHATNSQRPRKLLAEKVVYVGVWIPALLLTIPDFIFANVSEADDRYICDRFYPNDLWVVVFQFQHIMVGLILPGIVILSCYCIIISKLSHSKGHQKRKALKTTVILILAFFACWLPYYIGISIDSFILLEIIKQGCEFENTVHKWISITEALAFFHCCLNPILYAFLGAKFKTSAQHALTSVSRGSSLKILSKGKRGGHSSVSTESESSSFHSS
Data set [5] deals with C-C chemokine receptor type 2 (Homo sapiens, UniProt P41597). As to the kind of experiment: Compound was evaluated for its inhibitory activity against C-C chemokine receptor type 2.
C-C chemokine receptor type 2, sequence (P41597 whole entry): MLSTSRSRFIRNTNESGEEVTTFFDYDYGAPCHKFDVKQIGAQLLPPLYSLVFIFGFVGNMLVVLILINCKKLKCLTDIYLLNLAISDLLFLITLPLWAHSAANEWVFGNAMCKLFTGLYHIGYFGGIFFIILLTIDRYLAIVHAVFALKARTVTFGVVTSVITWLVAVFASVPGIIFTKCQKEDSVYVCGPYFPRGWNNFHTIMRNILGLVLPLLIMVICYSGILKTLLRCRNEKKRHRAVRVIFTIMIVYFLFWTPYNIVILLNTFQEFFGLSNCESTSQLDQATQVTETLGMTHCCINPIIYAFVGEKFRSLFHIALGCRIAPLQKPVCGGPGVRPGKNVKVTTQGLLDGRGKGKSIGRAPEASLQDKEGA
Data set [6] concerns the target T4, C-C chemokine receptor type 4 (Homo sapiens, UniProt P51679).
T4 sequence (P51679 whole entry): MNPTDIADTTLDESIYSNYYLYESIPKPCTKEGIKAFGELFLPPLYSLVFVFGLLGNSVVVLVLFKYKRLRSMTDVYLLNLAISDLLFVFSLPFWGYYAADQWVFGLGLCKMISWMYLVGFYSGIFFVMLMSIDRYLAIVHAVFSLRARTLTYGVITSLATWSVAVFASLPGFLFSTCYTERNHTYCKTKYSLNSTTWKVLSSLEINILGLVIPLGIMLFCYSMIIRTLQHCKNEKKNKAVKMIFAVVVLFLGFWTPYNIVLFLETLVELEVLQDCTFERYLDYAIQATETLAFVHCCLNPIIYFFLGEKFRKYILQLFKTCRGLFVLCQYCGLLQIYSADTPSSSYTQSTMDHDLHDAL
The data set is described as follows: Compound was evaluated for its inhibitory activity against C-C chemokine receptor type 4.

The subject of another data set is HeLa. The data set is described as follows: Antiviral activity against HeLa Magi cells expressing both CXCR4 and CCR5 in a 48 hr single cycle HIV (BAL) infection assay. In kind it is functional. The settings on record: Homo sapiens.
The nature of data set [7]: Oral bioavailability in rat. The settings on record: in vivo. Format: ADME, organism-based.
Data set [8] is described as follows: Clearance in rat. The settings on record: in vivo. In kind it is ADME, organism-based.
Data set [9] addresses T1, C-C chemokine receptor type 5. As to the kind of experiment: Binding affinity against human CCR5 receptor stably expressed in Chinese hamster ovary (CHO) cells using [125I]-MIP-1 alpha as the radioligand. Format: cell-based.

T1 sequence (P51681 whole entry): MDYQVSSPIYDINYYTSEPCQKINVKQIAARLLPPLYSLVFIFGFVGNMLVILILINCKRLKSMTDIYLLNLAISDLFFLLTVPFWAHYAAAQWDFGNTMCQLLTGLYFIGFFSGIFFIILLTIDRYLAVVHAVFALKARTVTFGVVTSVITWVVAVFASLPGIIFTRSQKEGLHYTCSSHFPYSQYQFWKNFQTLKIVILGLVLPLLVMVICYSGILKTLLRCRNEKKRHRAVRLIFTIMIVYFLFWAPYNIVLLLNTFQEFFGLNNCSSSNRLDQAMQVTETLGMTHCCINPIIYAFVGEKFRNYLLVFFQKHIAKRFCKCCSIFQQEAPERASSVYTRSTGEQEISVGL

A word on the IC50: it is the point on the concentration scale where inhibition reaches its midpoint. Read a high IC50 as lower potency. Regarding `C=CCN(C(=O)OCc1ccc([N+](=O)[O-])cc1)C1CCN(CCC(Cn2nnnc2-c2ccccc2)c2ccccc2)CC1` (stereo not drawn), in data set [1], the IC50 was 335 nM.

One may read the IC90 as the concentration at which the effect reaches the 90% level. Read a high IC90 as weaker potency. As for `C=CCN(C(=O)OCc1ccccc1)C1CCN(CCC(Cn2cnc3ccccc32)c2ccccc2)CC1` (stereo not drawn), the IC50 in data set [2] was more than 1000 nM; in data set [3], more than 1000 nM; in [4] it was more than 1000 nM; in [1], 25 nM; in data set [5] it was more than 1000 nM; in data set [6], more than 1000 nM. In the data set on HeLa, this compound came in with an IC90 of more than 3000 nM.

Turning to `C=CCN(C(=O)OCc1ccc([N+](=O)[O-])cc1)C1CCN(CCC(C)(c2ccccc2)C2c3ccccc3C(=O)N2CC)CC1` (single isomer, unassigned; form 2), in data set [1], the IC50 came out at 10 nM.

In the case of `C=CCN(C(=O)OCc1ccc([N+](=O)[O-])cc1)C1CCN(CCC(Cn2cnc(-c3ccccc3)c2)c2ccccc2)CC1` (stereo not drawn), in [1], the IC50 was 23 nM.

With `C=CCN(C(=O)OCc1ccccc1)C1CCN(CCC(C)(Cn2cnc3ccccc32)c2ccccc2)CC1` (stereo not drawn), the IC50 in data set [2] is more than 1000 nM; in data set [3] it was more than 1000 nM; in [4], more than 1000 nM; in [1], 112 nM; in [5], more than 1000 nM; in [6], more than 1000 nM.

As to `C=CCN(C(=O)OCc1ccc([N+](=O)[O-])cc1)C1CCN(CCC(C)(Cn2cnc3ccccc32)c2ccccc2)CC1` (stereo not drawn), the IC50 is more than 1000 nM in data set [2]; more than 1000 nM in data set [3]; more than 1000 nM in [4]; 10 nM in data set [1]; more than 1000 nM in data set [5]; more than 1000 nM in [6]. Also, in the data set on HeLa, it took 1000 nM to reach the 90% level (IC90).

Take `C=CCN(C(=O)OCc1ccc([N+](=O)[O-])cc1)C1CCN(CCC(Cn2cc3ccccc3n2)c2ccccc2)CC1` (stereo not drawn): the IC50 in data set [1] is 27 nM.

For the compound `C=CCN(C(=O)OCc1ccc([N+](=O)[O-])cc1)C1CCN(CCC(Cn2cnc(CC#N)c2)c2ccccc2)CC1` (stereo not drawn), in [1], the IC50 turned out to be 15 nM.

`C=CCN(C(=O)OCc1ccc([N+](=O)[O-])cc1)C1CCN(CCC(Cn2cncn2)c2ccccc2)CC1` (stereo not drawn) gave an IC50 in [1] of 28 nM.

One may read the bioavailability as the share of a dose that reaches the circulation, judged against a reference dose that is usually intravenous. Read a high bioavailability as good availability. By clearance is commonly meant a measure of how efficiently the substance is removed, as volume per time. High values mean efficient removal, low ones inefficient removal. `C=CCN(C(=O)OCc1ccc([N+](=O)[O-])cc1)C1CCN(CCC(Cn2cnc3ccccc32)c2ccccc2)CC1` (stereo not drawn) yielded a bioavailability in [7] of 14%. Also, the clearance in data set [8] turned out to be 49 mL/min/kg. Also, the IC50 was more than 1000 nM in [2]; more than 1000 nM in [3]; more than 1000 nM in [4]; 4 nM in data set [1]; more than 1000 nM in data set [5]; more than 1000 nM in data set [6]. Also, in the data set on HeLa, the IC90 worked out at 1000 nM.

`C=CCN(C(=O)OCc1ccccc1)C1CCN(CCC(C)(CN2C(=O)N[C@H](Cc3c[nH]c4ccccc34)C2=O)c2ccccc2)CC1` (stereo partly drawn) displayed a bioavailability in [7] of 1%. In addition, the clearance in data set [8] came to 84 mL/min/kg.

Take `C=CCN(C(=O)OCc1ccc([N+](=O)[O-])cc1)C1CCN(CCC(Cn2nnc(-c3ccccc3)n2)c2ccccc2)CC1` (stereo not drawn): the IC50 in data set [1] turned out to be 111 nM.

Regarding `C=CCN(C(=O)OCc1ccccc1)C1CCN(CCC(Cn2c(CC)nc3ccccc32)c2ccccc2)CC1` (stereo not drawn), the IC50 was more than 1000 nM in [2]; more than 1000 nM in data set [3]; more than 1000 nM in data set [4]; 246 nM in data set [1]; more than 1000 nM in [5]; more than 1000 nM in [6].

`C=CCN(C(=O)OCc1ccc([N+](=O)[O-])cc1)C1CCN(CCC(Cn2cnc([N+](=O)[O-])c2)c2ccccc2)CC1` (stereo not drawn): the 50% inhibitory concentration (IC50) in data set [1] was 15 nM.

As for `CN(C[C@@H](CCN1CCC2(CC1)C[S+]([O-])c1ccccc12)c1cccc(Cl)c1)S(=O)(=O)c1ccccc1` (stereo partly drawn), the IC50 in data set [9] amounted to 35 nM.

`C=CCN(C(=O)OCc1ccc([N+](=O)[O-])cc1)C1CCN(CCC(Cn2c(CC)nc3ccccc32)c2ccccc2)CC1` (stereo not drawn): the IC50 in data set [2] is more than 1000 nM; in [3], more than 1000 nM; in data set [4], more than 1000 nM; in data set [1], 48 nM; in data set [5], more than 1000 nM; in [6] it was more than 1000 nM. For the same compound, the IC90 in the data set with HeLa came to 3000 nM.

For `C=CCN(C(=O)OCc1ccccc1)C1CCN(CCC(C)(c2ccccc2)C2Nc3ccccc3S(=O)(=O)N2)CC1` (stereo in doubt), in data set [1], the IC50 is 18 nM.

Compound `C=CCN(C(=O)OCc1ccc([N+](=O)[O-])cc1)C1CCN(CCC(Cn2cnc(Cl)c2Cl)c2ccccc2)CC1` (stereo not drawn) showed an IC50 in [1] of 16 nM.

On to `C=CCN(C(=O)OCc1ccc([N+](=O)[O-])cc1)C1CCN(CCC(C)(c2ccccc2)C2c3ccccc3C(=O)N2CC)CC1` (single isomer, unassigned; form 1), for which, in data set [1], the IC50 came to 18 nM.

In data set [1], `C=CCN(C(=O)OCc1ccccc1)C1CCN(CCC(C)(c2ccccc2)C2Nc3ccccc3S(=O)(=O)N2)CC1` (single isomer, unassigned) showed an IC50 of 55 nM.

For `C=CCN(C(=O)OCc1ccc([N+](=O)[O-])cc1)C1CCN(CCC(Cn2ncc3ccccc32)c2ccccc2)CC1` (stereo not drawn), the IC50 in [1] stood at 15 nM.
